Test results: patent US20230278972A1, “SUBSTITUTED HALOALKYL SULFONANILIDE HERBICIDES” (FMC Corporation, priority 2020, published 2023)

What was measured:
Type in all cases: in vivo
[1] = test system: galium (catchweed bedstraw, Galium aparine); test: Test A1 postemergence, galium; conditions: 0 to 100 scale (0 no effect, 100 complete control); for Galium plant response rating: 31 g ai/ha, postemergence; for Plant response rating, Galium: Postemergence, 125 g ai/ha, 10 days
Summary of the method: (§1)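 Pre: seeds in loam/sand blend, directed soil spray. Post: potted plants, same soil, 2–10 cm, 1–2 leaf stage. Chemicals in non-phytotoxic solvent + surfactant for both.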

[2] = test system: blackgrass (Alopecurus myosuroides); test: Test A1 postemergence, blackgrass; conditions: 0 to 100 scale (0 no effect, 100 complete control); for Blackgrass plant response rating: 31 g ai/ha, postemergence; for Plant response rating, Blackgrass: Postemergence, 125 g ai/ha, 10 days
Summary of the method: as §1

[3] = test system: goosegrass (Eleusine indica); test: Test A1 preemergence, goosegrass
Summary of the method: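 Test compounds were formulated in a non-phytotoxic solvent mixture containing a surfactant. For preemergence, seeds sown in a loam soil–sand blend received a directed soil spray. For postemergence, potted plants in the same soil, 2 to 10 cm tall at the one- to two-leaf stage, were sprayed.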

soybean (Glycine max) = test: Test A1 postemergence, soybean; conditions: 0 to 100 scale (0 no effect, 100 complete control); for Soybean plant response rating: 31 g ai/ha, postemergence; for Plant response rating, Soybean: Postemergence, 125 g ai/ha, 10 days
Summary of the method: as §1

rice (Oryza sativa) = test: Test B1 flooded paddy test, rice; conditions: 250 g ai/ha, Flood, applied to paddy water, 2-leaf stage, visually evaluated after 10 to 14 days
Text: A dash (-) response means no test result.

kochia (Bassia scoparia) = test: Test A1 postemergence, kochia; conditions: 0 to 100 scale (0 no effect, 100 complete control); for Kochia plant response rating: 31 g ai/ha, postemergence; for Plant response rating, Kochia: Postemergence, 125 g ai/ha, 10 days
Summary of the method: as §1

[4] = 31 g ai/ha, 0 to 100 scale (0 no effect, 100 complete control)
[5] = 125 g ai/ha, 0 to 100 scale, 0 no effect, 100 complete control
[6] = 125 g ai/ha, 0 to 100 scale (0 no effect, 100 complete control)

SMILES	Galium plant response rating [1]	Plant response rating, Galium [1]	Blackgrass plant response rating [2]	Plant response rating, Blackgrass [2]	Plant response rating, Goosegrass [3, 4]	Plant response rating, Goosegrass [3, 5]	Soybean plant response rating (soybean (Glycine max))	Plant response rating, Soybean (soybean (Glycine max))	Plant response rating, Rice (0 to 100 scale, 0 is no effect, 100 is complete control) (rice (Oryza sativa))	Kochia plant response rating (kochia (Bassia scoparia))	Plant response rating, Kochia (kochia (Bassia scoparia))	Plant response rating, Goosegrass [3, 6]
Cc1cc(C)c(N2CCC3(CCC(C)CC3)C2=O)cc1NS(=O)(=O)C(F)(F)F (stereo not drawn) [Compound 402]	70	90	0	0	90	100	60	80	0	10	50	
Cc1cc(C)c(N(COC(=O)C(C)(C)C)S(=O)(=O)C(F)(F)F)cc1N1CCC2(CCC(C(F)(F)F)CC2)C1=O (stereo not drawn) [Compound 403]	70	100	0	0	0	0	50	60	0	10	40	
Cc1cc(C)c(N2Cc3cccc(C)c3C2=O)cc1NS(=O)(=O)Cl [Compound 408]	90	100	80	90	100		40	50	65	60	60	100
COc1cccc2c1C(=O)N(c1cc(N(COC(=O)C(C)(C)C)S(=O)(=O)Cl)c(C)cc1C)C2 [Compound 413]	50	100	0	0	50		80	80	0	20	80	80
CCOc1cccc2c1C(=O)N(c1cc(N(COC(=O)C(C)(C)C)S(=O)(=O)Cl)c(C)cc1C)C2 [Compound 414]	60	70	0	30	0		20	30	0	1	50	0
Cc1cc(C)c(N2Cc3cccc(Br)c3C2=O)cc1NS(=O)(=O)Cl [Compound 415]	60	90	0	40	90		10	30	10	40	70	100
